Data as given in PMC5885031, “Chlamydia trachomatis dapF Encodes a Bifunctional Enzyme Capable of Both D-Glutamate Racemase and Diaminopimelate Epimerase Activities” (mBio, 2018).

Tests used:
Type in all cases: biochemical
[1] = biological target: T1, DapFCT-His (chlamydial DapF, DAP epimerase) (Chlamydia trachomatis, UniProt B0B802); test: glutamate racemase assay coupled to L-glutamate dehydrogenase (NADPH, […] nm); details: 10 mM D-Glu as substrate, 10 uM PLP, 10 mM MgCl2, 20 mM Tris-Cl pH 8.0, 37 C; competing substrate
T1 construct: 6-His tag at 5' end (N-terminal), tag not removed; pTBSG vector, E. coli BL21(DE3); Ni-NTA purified; ~32 kDa
T1 sequence (B0B802 1-275): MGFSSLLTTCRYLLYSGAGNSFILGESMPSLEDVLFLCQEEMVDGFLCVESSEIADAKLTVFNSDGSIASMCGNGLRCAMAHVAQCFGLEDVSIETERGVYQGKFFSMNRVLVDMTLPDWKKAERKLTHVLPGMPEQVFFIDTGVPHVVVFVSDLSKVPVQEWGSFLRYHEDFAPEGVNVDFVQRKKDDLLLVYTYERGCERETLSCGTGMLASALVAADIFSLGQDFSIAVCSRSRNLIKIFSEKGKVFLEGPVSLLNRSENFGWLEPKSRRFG

[2] = biological target: T1, DapFCT-His (chlamydial DapF, DAP epimerase); test: as above; details: 20 mM D-Glu, 10 uM PLP, 10 mM MgCl2, 20 mM Tris-Cl pH 8.0, 37 C; racemization to L-Glu
[3] = biological target: T1, DapFCT-His (chlamydial DapF, DAP epimerase); test: glutamate racemase coupled assay with and without PLP; details: 10 uM PLP, D-Glu as substrate, 10 mM MgCl2, 20 mM Tris-Cl pH 8.0, 37 C; required for racemase activity

## N[C@@H](CCC[C@H](N)C(=O)O)C(=O)O [L,L-DAP]
[1]
  % decrease of glutamate racemase activity at 10 mM L,L-DAP: 47%

## N[C@H](CCC(=O)O)C(=O)O [D-Glu]
[2]
  glutamate racemase assay coupled to L-glutamate dehydrogenase (NADPH, 340 nm): Purified DapFCT-His was assayed for glutamate racemase activity with D-Glu as the substrate

## Cc1ncc(COP(=O)(O)O)c(C=O)c1O [pyridoxal phosphate]
[3]
  glutamate racemase coupled assay with and without PLP: D-Glu racemization to L-Glu was found to be PLP dependent (Fig. 4a)
